Data as given in patent US3954871A, “1-(4-Alkylthiopheny)-2-substituted amino-alcohols and their salts” (Continental Pharma, priority 1969, dated 1976).
Counter-ions that a name gives are not always drawn. Like-named read-outs stand apart in the source and are kept apart here.

Assays:
[1] = system: isolated auricles of guinea pigs; details: dose 1.10 - 6 g/ml of bath
[2] = system: mice; experiment: Anti-arrhythmic activity in mice; assay type: in vivo; details: Mus musculus, po, 0.5 h, read-out: Anti-arrhythmic activity: number of mice protected in relation with the number of tested mice
Description: ^(4) Number of mice protected in relation with the number of tested
mice (dose = 100 mg/kg per os; recording 30 min. after administration)

[3] = Local anaesthesic activity; assay type: in vivo; details: read-out: Local anaesthesic activity ED50
[4] = Solubility of salt in water; assay type: physicochemical
Description: To 1.20 g of 1-(3-methyl-4-methylthiophenyl)-2-isopropylaminoethanol in 40 ml of water, 1.96 ml of a 50% gluconic acid solution are added. The mixture is heated in water-bath during 1 hour at 70°, then the solution is lyophilised (2.18 g of the salt obtained are soluble in 5 ml of water and give a pH of 4.6).
To 1.2 g of 1-(3-methyl-4-methylthiophenyl)-2-isopropylaminoethanol in 32 ml of water, 0.53 g of a 85% aqueous lactic acid solution are added. The product is heated in a water-bath for 2 hours at 50°, then the solution is lyophilised. (1.55g of the salt obtained are soluble in 5 ml of water).

[5] = Peripherical vasodilatator activity (intra-arterial); assay type: in vivo; details: dose = 30 γ/kg intra-arterial
Excerpt: activity equal to that of papaverine; ++++ = activity higher than that of
papaverine (dose = 30 γ /kg intra-arterial)

[6] = in vivo; details: mouse, ip
[7] = 100 mg/kg per os, recording 30 min. after administration

With `CCc1cc(C(O)CNC(C)C)ccc1SC` (stereo not shown) [Table III No. 47, 1-(3-Ethyl-4-methylthiophenyl)-2-isopropylaminoethanol] the “Protection against anoxia, activity” value [1] was “++” and the responders at 100 mg/kg [2] was 65%.
Compound `CSc1ccc(C(O)CNC(C)C)cc1F` (stereo not shown) [Table III No. 58, 1-(3-fluoro-4-methylthiophenyl)-2-isopropylaminoethanol] has a responders at 100 mg/kg [2] of 20% and an ED50 [3] of over 5 mg/kg.
Work on `CCSc1ccc(C(O)CNC2CCCCC2)cc1C` (stereo not shown) [Table IV No. 51] yielded an ED50 [3] of over 5 mg/kg.
Work on `CCN(CC)CCOC(=O)c1ccc(N)cc1` [Procaine, reference compound] yielded an ED50 [3] of 1.8 mg/kg.
With `CSc1ccc(C(O)CNC(C)C)cc1C` (stereo not shown) [1-(3-Methyl-4-methylthiophenyl)-2-isopropylaminoethanol lact] [1-(3-Methyl-4-methylthiophenyl)-2-isopropylaminoethanol lactate] the “amount of salt soluble in 5 ml of water” value [4] was at least 1.55 g.
For `CCC(C)NCC(O)c1ccc(SC)c(C)c1` (stereo not shown) [compound 33], the Peripherical vasodilatator activity [5] was “++ +”.
`CCCCNCC(O)c1ccc(SCCCC)c(C)c1` (stereo not shown) [compound 97] showed an LD50 [6] of 110 mg/kg.
In the case of `CC(C)NCC(O)COc1cccc2ccccc12` (stereo not shown) [Propranolol, reference compound], the “Protection against anoxia, activity” value [1] is reported as 0, the responders at 100 mg/kg [2] is reported as 100% and the ED50 [3] is reported as 1.4 mg/kg.
Compound `CCCCSc1ccc(C(O)CNC(C)(C)C)cc1C` (stereo not shown) [compound 90] has an LD50 [6] of 91 mg/kg.
In the case of `CCC(C)NC(C)C(O)c1ccc(SC)c(Cl)c1` (stereo not shown) [Table III No. 8], the LD50 [6] is reported as 150 mg/kg.
Compound `CCCCSc1ccc(C(O)CNC(C)C(O)c2ccccc2)cc1C` (stereo not shown) [Table IV No. 66] has a responders at 100 mg/kg [2] of 20%.
With `CCc1cc(C(O)CNC(C)CC)ccc1SC` (stereo not shown) [compound 51] the Peripherical vasodilatator activity [5] was “+ ++”.
`Cc1cc(C(O)CN2CCOCC2)ccc1SC(C)C` (stereo not shown) [compound 126] showed an LD50 [6] of 440 mg/kg.
With `CSc1ccc(C(O)C(C)N2CCC(C)CC2)cc1C` (stereo not shown) [Table III No. 20] the LD50 [6] was 91 mg/kg.
With `CCC(C)NCC(O)c1ccc(SC)c(C)c1` (stereo not shown) [Table III No. 33, 1-(3-Methyl-4-methylthiophenyl)-2-secbutylaminoethanol] the responders at 100 mg/kg [2] was 40% and the ED50 [3] was about 5 mg/kg.
For `Cc1cc(C(O)CN2CCCCC2)ccc1SCC(C)C` (stereo not shown) [compound 86], the LD50 [6] was 110 mg/kg.
`CCCCCCSc1ccc(C(O)CN2CCCCC2)cc1C` (stereo not shown) [compound 108] gave an LD50 [6] of 182 mg/kg.
In the case of `CCCCCCCCSc1ccc(C(O)CNC(C)CC)cc1C` (stereo not shown) [Table III No. 117], the responders at 100 mg/kg [2] is reported as 30%.
Work on `CCCCSc1ccc(C(O)CN2CCC(C)CC2)cc1C` (stereo not shown) [Table IV No. 63] yielded a responders at 100 mg/kg [2, 7] of 20% and an ED50 ([3]; ED50, interval in brackets) of 4.1 mg/kg.
In the case of `CCSc1ccc(C(O)CNC(C)Cc2ccccc2)cc1C` (stereo not shown) [compound 83], the LD50 [6] is reported as 110 mg/kg.
Work on `Cc1cc(C(O)CN2CCC(C)CC2)ccc1SCC(C)C` (stereo not shown) [compound 85] yielded an LD50 [6] of 182 mg/kg.
In the case of `CSc1ccc(C(O)CN2CCCCC2)cc1C` (stereo not shown) [CH3 S--, 3CH3 (amine drawn)], the “Protection against anoxia, activity” value [1] is reported as “+”.
For `CCCCSc1ccc(C(O)CN2CCCCC2)cc1C` (stereo not shown) [compound 93], the LD50 [6] was 182 mg/kg.
`CSc1ccc(C(O)C(C)NC(C)(C)C)cc1Cl` (stereo not shown) [Table III No. 3] showed a responders at 100 mg/kg [2] of 10%, an LD50 [6] of 440 mg/kg and an ED50 [3] of over 5 mg/kg.
In the case of `CCCCSc1ccc(C(O)CN2CCC(C)CC2)cc1C` (stereo not shown) [compound 96], the LD50 [6] is reported as 182 mg/kg.
Work on `CSc1c(C)cc(C(O)CNC(C)C)cc1Cl` (stereo not shown) [Table III No. 64] yielded an LD50 [6] of 182 mg/kg and an ED50 [3] of 4.1 mg/kg.
Compound `CSc1ccc(C(O)CN2CCCCC2)cc1C` (stereo not shown) [Table IV No. 8] has a responders at 100 mg/kg [2, 7] of 20% and an ED50 ([3]; ED50, interval in brackets) of 1.6 mg/kg.
Work on `CCCCCCSc1ccc(C(O)CN2CCOCC2)cc1C` (stereo not shown) [compound 109] yielded an LD50 [6] of 600 mg/kg.
Compound `COc1cc(C(O)CNC(C)(C)C)ccc1SC` (stereo not shown) [Table IV No. 33, 1-(3-Methoxy-4-methylthiophenyl)-2-tertbutylaminoethanol hydrochloride] has a responders at 100 mg/kg [2] of 20%.
For `Cc1cc(C(O)CNC(C)C)ccc1SC(C)C` (stereo not shown) [compound 127], the LD50 [6] was 182 mg/kg.
For `CSc1ccc(C(O)CNC(C)(C)C)cc1Cl` (stereo not shown) [Table III No. 2], the responders at 100 mg/kg [2] was 10%.
For `CCCCSc1ccc(C(O)CN2CCCC(C)C2)cc1C` (stereo not shown) [compound 95], the LD50 [6] was 150 mg/kg.
For `CSc1ccc(C(O)CNC(C)(C)C)cc1C` (stereo not shown) [Table III No. 12], the “Protection against anoxia, activity” value [1] was “+”.
`CSc1ccc(C(O)CNC(C)Cc2ccccc2)cc1Cl` (stereo not shown) [Table III No. 22] gave an LD50 [6] of 55 mg/kg.
Compound `CCCC(NC(C)CC)C(O)c1ccc(SC)c(Cl)c1` (stereo not shown) [compound 40] has an ED50 [3] of about 5 mg/kg.
Compound `CCSc1ccc(C(O)CNCCc2ccccc2)cc1C` (stereo not shown) [compound 81] has an LD50 [6] of 75 mg/kg.
In the case of `CCc1cc(C(O)CNC(C)(C)C)ccc1SC` (stereo not shown) [compound 50], the LD50 [6] is reported as 150 mg/kg.
With `CSc1ccc(C(O)CNC(C)C)cc1C` (stereo not shown) [Table III No. 1, 1-(3-methyl-4-methylthiophenyl)-2-isopropylaminoethanol] the “Protection against anoxia, activity” value [1] was “++”, the responders at 100 mg/kg [2] was 60% and the LD50 [6] was 150 mg/kg. It also gave an ED50 [3] of 4.5 mg/kg.
With `CCCCCCSc1ccc(C(O)CNC(C)(C)C)cc1C` (stereo not shown) [compound 107] the LD50 [6] was 110 mg/kg.
With `CCc1cc(C(O)CNC(C)(C)C)ccc1SC` (stereo not shown) [Table III No. 50] the responders at 100 mg/kg [2] was 50% and the ED50 [3] was over 5 mg/kg.
Compound `CCc1cc(C(O)CNC(C)CC)ccc1SC` (stereo not shown) [Table III No. 51, 1-(3-Ethyl-4-methylthiophenyl)-2-secbutylaminoethanol] has a responders at 100 mg/kg [2] of 60% and an ED50 [3] of over 5 mg/kg.
`CCCCCSc1ccc(C(O)CNC(C)(C)C)cc1C` (stereo not shown) [compound 102] showed an LD50 [6] of 91 mg/kg.
In the case of `CSc1ccc(C(O)CNC(C)C)cc1Cl` (stereo not shown) [Table III No. 11, 1-(3-Chloro-4-methylthiophenyl)-2-isopropylaminoethanol], the “Protection against anoxia, activity” value [1] is reported as “++”, the responders at 100 mg/kg [2] is reported as 55% and the LD50 [6] is reported as 150 mg/kg. For the same compound, the ED50 [3] was over 5 mg/kg.
With `Cc1cc(C(O)CN2CCCCC2)ccc1SC(C)C` (stereo not shown) [compound 124] the LD50 [6] was 150 mg/kg.
Compound `CSc1ccc(C(O)CN2CCC(C)CC2)cc1C` (stereo not shown) [Table IV No. 27] has a responders at 100 mg/kg [2, 7] of 20% and an ED50 ([3]; ED50, interval in brackets) of over 5 mg/kg.
With `COc1ccc(Cc2nccc3cc(OC)c(OC)cc23)cc1OC` [Papaverine, reference compound] the “Protection against anoxia, activity” value [1] was 0 and the LD50 [6] was 300 mg/kg.
For `CSc1ccc(C(O)CNC(C)C)cc1C` (stereo not shown) [1-(3-Methyl-4-methylthiophenyl)-2-isopropylaminoethanol gluc] [1-(3-Methyl-4-methylthiophenyl)-2-isopropylaminoethanol gluconate], the “pH of solution of salt in water” value ([4]; 2.18 g in 5 ml of water) was 4.6 and the “amount of salt soluble in 5 ml of water” value [4] was at least 2.18 g.
`Cc1cc(C(O)CNC2CCCCC2)ccc1SC(C)C` (stereo not shown) [compound 130] gave an LD50 [6] of 75 mg/kg.
Compound `CCCCNCC(O)c1ccc(SC)c(Cl)c1` (stereo not shown) [Table III No. 15] has an LD50 [6] of 110 mg/kg.
`CSc1ccc(C(O)CNC(C)Cc2ccccc2)cc1C` (stereo not shown) [compound 31] gave an LD50 [6] of 75 mg/kg.
Compound `CCCCNCC(O)c1ccc(SC(C)C)c(C)c1` (stereo not shown) [compound 129] has an LD50 [6] of 46 mg/kg.
In the case of `CCCCCCCCNCC(O)c1ccc(SC(C)C)c(C)c1` (stereo not shown) [compound 131], the LD50 [6] is reported as 86 mg/kg.
Work on `CCC(C(O)c1ccc(SC)c(Cl)c1)N1CCOCC1` (stereo not shown) [Table III No. 28] yielded an ED50 [3] of over 5 mg/kg.
For `CSc1ccc(C(O)CN)cc1C` (stereo not shown) [compound 41], the LD50 [6] was 150 mg/kg.
With `CSc1ccc(C(O)CN2CCCCC2)cc1Cl` (stereo not shown) [Table III No. 24] the Peripherical vasodilatator activity [5] was “+ ++” and the LD50 [6] was 364 mg/kg.
Compound `CSc1c(C)cc(C(O)CN2CCCCC2)cc1Cl` (stereo not shown) [compound 62] has an LD50 [6] of 220 mg/kg.
In the case of `Cc1cc(C(O)CNC(C)(C)C)ccc1SC(C)C` (stereo not shown) [compound 125], the LD50 [6] is reported as 150 mg/kg.
`CCCCCSc1ccc(C(O)CNCCCC)cc1C` (stereo not shown) [compound 104] gave an LD50 [6] of 75 mg/kg.
Compound `CCCCCCSc1ccc(C(O)CNCCC)cc1C` (stereo not shown) [compound 112] has an LD50 [6] of 364 mg/kg.
In the case of `CSc1ccc(C(O)CNC2CCCCC2)cc1C` (stereo not shown) [CH3 S--, 3CH3 (amine drawn)], the “Protection against anoxia, activity” value [1] is reported as “++”.
`C=C[C@H]1C[N@@]2CC[C@H]1C[C@@H]2[C@@H](O)c1ccnc2ccc(OC)cc12` [Quinidine, reference compound] gave a responders at 100 mg/kg [2, 7] of 20%.
With `CCSc1ccc(C(O)CNC(C)C)cc1C` (stereo not shown) [compound 74] the LD50 [6] was 150 mg/kg.
For `Cc1cc(C(O)CN2CCC(C)CC2)ccc1SC(C)C` (stereo not shown) [compound 133], the LD50 [6] was 110 mg/kg.
`CCCCNCC(O)c1ccc(SCC)c(C)c1` (stereo not shown) [compound 80] gave an LD50 [6] of 110 mg/kg and an ED50 [3] of over 5 mg/kg.
`CCCCCCCCNCC(O)c1ccc(SC)c(CC)c1` (stereo not shown) [compound 45] gave an LD50 [6] of 75 mg/kg.
With `CSc1ccc(C(O)CNC2CCCCC2)cc1C` (stereo not shown) [Table IV No. 24] the responders at 100 mg/kg [2] was 40% and the ED50 [3] was over 5 mg/kg.
For `CCSc1ccc(C(O)CNC(C)(C)C)cc1C` (stereo not shown) [Table III No. 73], the LD50 [6] was 220 mg/kg and the ED50 [3] was about 5 mg/kg.
In the case of `CCSc1ccc(C(O)CNC2CCCCC2)cc1C` (stereo not shown) [Table III No. 77], the LD50 [6] is reported as 91 mg/kg.
With `CCCCSc1ccc(C(O)CN(C)C)cc1C` (stereo not shown) [compound 94] the LD50 [6] was 150 mg/kg.
